The supplement of paper PMC10307832

Legend:
Experiment in all cases: relative viability (nuclei count vs DMSO), 5 days (fraction); higher = more cells survive
MK-8033 + Olaparib = compound: Cn1cc(-c2cnc3ccc4ccc(CS(=O)(=O)NCc5ccccn5)cc4c(=O)c3c2)cn1 [MK-8033] + O=C(c1cc(Cc2n[nH]c(=O)c3ccccc23)ccc1F)N1CCN(C(=O)C2CC2)CC1 [Olaparib] (partner 8 µM)
Outline: (§1)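 Relative viability divides the nuclei count in treated wells by that in vehicle wells. Lung cancer cell lines were seeded in 1536-well plates, dosed by pin tool the next day, and fixed and stained after 5 days in one step with final 0.05% Triton X-100, 1% formaldehyde and 1 ug/ml Hoechst. Dosing was a single drug or a fixed anchor-drug dose plus five library-drug doses (not always all listed) in √10 steps, and values are medians of duplicate plates imaged at 4×.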

MK-8033 + Pictilisib = compound: Cn1cc(-c2cnc3ccc4ccc(CS(=O)(=O)NCc5ccccn5)cc4c(=O)c3c2)cn1 [MK-8033] + CS(=O)(=O)N1CCN(Cc2cc3nc(-c4cccc5[nH]ncc45)nc(N4CCOCC4)c3s2)CC1 [Pictilisib] (partner 1 µM)
Outline: as §1

Irinotecan + OSI-027 = compound: CCc1c2c(nc3ccc(OC(=O)N4CCC(N5CCCCC5)CC4)cc13)-c1cc3c(c(=O)n1C2)COC(=O)[C@]3(O)CC [Irinotecan] + COc1cccc2cc(-c3nc([C@H]4CC[C@H](C(=O)O)CC4)n4ncnc(N)c34)[nH]c12 [OSI-027] (partner 0.5 µM)
Outline: as §1

Irinotecan + Olaparib = compound: CCc1c2c(nc3ccc(OC(=O)N4CCC(N5CCCCC5)CC4)cc13)-c1cc3c(c(=O)n1C2)COC(=O)[C@]3(O)CC [Irinotecan] + O=C(c1cc(Cc2n[nH]c(=O)c3ccccc23)ccc1F)N1CCN(C(=O)C2CC2)CC1 [Olaparib] (partner 8 µM)
Outline: as §1

Cell Line	relative viability (MK-8033 + Olaparib; first compound 0.02 µM)	relative viability (MK-8033 + Olaparib; first compound 0.06325 µM)	relative viability (MK-8033 + Olaparib; first compound 0.2 µM)	relative viability (MK-8033 + Olaparib; first compound 0.6325 µM)	relative viability (MK-8033 + Olaparib; first compound 2 µM)	relative viability (MK-8033 + Pictilisib; first compound 0.02 µM)	relative viability (MK-8033 + Pictilisib; first compound 0.06325 µM)	relative viability (MK-8033 + Pictilisib; first compound 0.2 µM)	relative viability (MK-8033 + Pictilisib; first compound 0.6325 µM)	relative viability (MK-8033 + Pictilisib; first compound 2 µM)	relative viability (Irinotecan + OSI-027; first compound 0.6325 µM)	relative viability (Irinotecan + OSI-027; first compound 2 µM)	relative viability (Irinotecan + OSI-027; first compound 6.325 µM)	relative viability (Irinotecan + OSI-027; first compound 20 µM)	relative viability (Irinotecan + Olaparib; first compound 0.6325 µM)	relative viability (Irinotecan + Olaparib; first compound 2 µM)	relative viability (Irinotecan + Olaparib; first compound 6.325 µM)	relative viability (Irinotecan + Olaparib; first compound 20 µM)
NCI-H1666	0.755	0.683	0.659	0.82	0.774	0.365	0.31	0.459	0.422	0.481	0.792	0.809	0.544	0.26	0.672	0.726	0.654	0.671
HARA	0.558	0.542	0.761	0.732	0.639	0.445	0.395	0.335	0.382	0.419	0.148	0.186	0.142	0.0795	0.466	0.405	0.2	0.262
NCI-H661	0.726	0.679	0.774	0.71	0.675	0.447		0.394	0.454	0.423	0.653	0.654	0.415	0.212	0.583	0.556	0.396	0.233
NCI-H2087	0.593	0.57	0.535	0.492	0.622	0.912	0.814	0.737	0.994	0.692	0.239	0.339	0.157	0.166	0.175	0.196	0.154	0.173
LC-2-ad	0.701	0.678	0.673	0.702	0.727	0.43	0.461	0.453	0.572	0.486	0.384	0.606	0.372	0.148	0.389	0.337	0.282	0.24
NCI-H2405	0.832	0.881	0.868	0.913	0.876	0.502	0.445	0.404	0.434	0.593		0.596	0.382	0.289		0.495	0.256	0.0989
HCC-44	1	1.06	0.931	1.01	0.975	0.623	0.409	0.542	0.69	0.738		0.721	0.289	0.213	0.754	0.423	0.378	0.425
NCI-H3122	0.576	0.662	0.618	0.572	0.589	0.676	0.563	0.602	0.66	0.628	1.04	0.649	0.22	0.0566	0.217	0.201	0.16	0.14
LU99A	0.28	0.222	0.223	0.266	0.22	0.331	0.275	0.318	0.29	0.32	0.202	0.243	0.181	0.242	0.126	0.126	0.119	0.15
ABC-1	1.07	0.746	0.838	0.939	0.898	0.969	0.564	0.689	0.674	0.699		0.494	0.341	0.093		0.68	0.421	0.375
H3255	0.567	0.504	0.561	0.57	0.537	0.558	0.299	0.48	0.577	0.441	0.502	0.445	0.373	0.367	0.464	0.446	0.343	0.362
HCC-827	0.653		0.644	0.561	0.488	1.05	0.605	0.902	1.06	1.04	0.639	0.64	0.224	0.216	0.379	0.236	0.212	0.165
NCI-H1734	0.644	0.553	0.546	0.615	0.648	0.48	0.37	0.466	0.469	0.45		0.509	0.225	0.165		0.184	0.143	0.179
EBC-1	0.659	0.565	0.792	0.648	0.568	0.354	0.314	0.222	0.195	0.144					0.228	0.224	0.257	0.188
NCI-H838	0.783	0.727	0.707	0.753	0.716	0.462	0.447	0.425	0.423	0.394	0.508	0.37	0.368	0.257	0.632	0.441	0.238	0.18
NCI-H1437	0.632	0.619	0.596	0.633	0.598	0.56	0.409	0.384	0.449	0.482	0.797	0.722	0.378	0.184	0.434	0.429	0.316	0.272
NCI-H1915	0.243	0.241	0.267	0.252	0.259	0.969	0.785	0.914	1	0.861	0.303	0.295	0.216	0.346	0.151	0.186	0.144	0.115
SK-MES-1	0.682	0.658	0.677	0.76	0.717	0.334	0.301	0.328	0.405	0.349	0.428	0.538	0.434	0.15	0.364	0.293	0.325	0.255
